Among the test systems are OVCAR-3; SF-295; KM12; UO-31; IGROV-1; RXF 393; SK-MEL-2; M14; HT-29; SN12C; HOP-92; COLO 205; SNB-19; TK-10; A498; OVCAR-5; SW-620; OVCAR-8; 786-0; NCI-H226.
Common to all, as to test: DTP human tumour cell line panel, 48 h

SMILES strings stand for the structures.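 Following 48 hours of exposure in 96-well plates, responses at five concentrations were used to interpolate endpoints linearly. GI50: concentration for 50% inhibition of growth.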 Calls of active or inactive are those of the source. Rule as the data show it: active = GI50 up to about 1.1 µM and inactive = higher. A value given as a limit tells only on which side of the number the result lay.

For `C=CC[N+]12CN3CN(CN(C3)C1)C2`, the GI50 – broadly, the concentration giving 50% growth inhibition – is 43.9 µM (inactive) in the test on OVCAR-3; > 100 µM (inactive) in the test with SF-295; 29 µM (inactive) in the test on KM12; 21 µM (inactive) in the test with UO-31; 27.4 µM (inactive) in the test on IGROV-1; 18.5 µM (inactive) in the test with RXF 393. In addition, the GI50 is 42.1 µM (inactive) in the test on SK-MEL-2; 25.8 µM (inactive) with M14; 17.9 µM (inactive) with HT-29; 23.4 µM (inactive) in the test with SN12C; 23.8 µM (inactive) in the test with HOP-92; 25.9 µM (inactive) in the test on COLO 205. For the same molecule, the GI50 in the test with SNB-19 was 40 µM (inactive); in the test with TK-10 it was 22.6 µM (inactive); with A498, 32.8 µM (inactive); in the test with OVCAR-5, 23.2 µM (inactive); with SW-620, 5.94 µM (inactive); in the test on OVCAR-8 it was 24 µM (inactive).
Consider `O=C1CCC2COc3ccc(O)c1c32` (centres undefined), for which the GI50 with OVCAR-3, in the test on SF-295, in the test on IGROV-1, with RXF 393, in the test on M14 and in the test with HT-29 was > 100 µM (inactive) throughout. Also, the GI50 was > 100 µM (inactive) in the test on SN12C; 79.3 µM (inactive) with HOP-92; > 100 µM (inactive) in the test on COLO 205; 24.1 µM (inactive) in the test with SNB-19; > 100 µM (inactive) with TK-10; > 100 µM (inactive) in the test on A498. Moreover, the GI50 in the test with SW-620 and in the test with OVCAR-8 was > 100 µM (inactive) each time.
In the case of `CNc1ccc2c(c1)[C@@]1(C)c3ccccc3[C@@H](C2)N1C`, the GI50 in the test with OVCAR-3 is 20.1 µM (inactive); with SF-295, 29.6 µM (inactive); with KM12, 22.4 µM (inactive); in the test with UO-31, 28.1 µM (inactive); in the test on IGROV-1, 48.9 µM (inactive); with RXF 393, 20.3 µM (inactive). The GI50 in the test with SK-MEL-2 was 21.6 µM (inactive); with M14, 21.6 µM (inactive); in the test on HT-29, 18.8 µM (inactive); in the test with SN12C, 17.4 µM (inactive); with HOP-92, 27.1 µM (inactive); in the test on SNB-19, 37.8 µM (inactive). The GI50 is 28.8 µM (inactive) in the test on TK-10; 17.4 µM (inactive) in the test on 786-0; 26.4 µM (inactive) with A498; 25.9 µM (inactive) in the test with OVCAR-5; 33.7 µM (inactive) with SW-620.
Consider `CCOC(=O)c1ccc(C(=O)n2ccnc2)[nH]1`, for which the GI50 in the test with OVCAR-3 is > 100 µM (inactive); with SF-295 it was > 100 µM (inactive); in the test with KM12, > 100 µM (inactive); with UO-31, > 100 µM (inactive); in the test on IGROV-1 it was > 100 µM (inactive); with RXF 393, 85.7 µM (inactive). Further, the GI50 in the test with NCI-H226, with SK-MEL-2, with M14, in the test with SN12C, in the test with COLO 205 and with SNB-19 was > 100 µM (inactive) throughout. Besides, the GI50 in the test with TK-10, with 786-0, in the test on A498, with OVCAR-5, in the test with SW-620 and in the test with OVCAR-8 was > 100 µM (inactive) in each case.
As for `COc1ccc(/N=C\c2cc(OC)c(OC)c(OC)c2)cc1`, the GI50 is > 100 µM (inactive) in the test on KM12; 64.9 µM (inactive) in the test on UO-31; > 100 µM (inactive) with IGROV-1; > 100 µM (inactive) in the test with RXF 393; > 100 µM (inactive) with SK-MEL-2; > 100 µM (inactive) in the test on HT-29. Besides, the GI50 with SN12C, in the test on HOP-92, in the test on SNB-19, in the test with TK-10, in the test on 786-0 and in the test on A498 was > 100 µM (inactive) throughout. Also, the GI50 was > 100 µM (inactive) in the test with OVCAR-5, 14.3 µM (inactive) in the test on SW-620 and > 100 µM (inactive) in the test with OVCAR-8.
On to `C(=C\c1csnn1)/c1cccnc1`, for which the GI50 in the test on OVCAR-3, in the test with SF-295, with KM12, in the test on UO-31, in the test on RXF 393 and in the test on NCI-H226 was > 100 µM (inactive) in each case. In addition, the GI50 in the test with SK-MEL-2, in the test on M14, in the test on HT-29, with SN12C, in the test on COLO 205 and in the test on SNB-19 was > 100 µM (inactive) in each case. In addition, the GI50 in the test on TK-10, with 786-0, with A498, in the test with OVCAR-5, with SW-620 and in the test with OVCAR-8 was > 100 µM (inactive) each time.
In the case of `C[C@]12CC[C@H](OC3CCCCO3)CC1=CC[C@@H]1C2CC[C@]2(C)/C(=N/OCCC#N)CCC12` (some centres undefined), the GI50 was 68.7 µM (inactive) in the test on OVCAR-3; 21.3 µM (inactive) with SF-295; > 100 µM (inactive) in the test with KM12; 47.8 µM (inactive) with UO-31; > 100 µM (inactive) with IGROV-1; 16 µM (inactive) in the test with RXF 393. For the same molecule, the GI50 was 56.2 µM (inactive) with SK-MEL-2; > 100 µM (inactive) in the test on M14; 2.17 µM (inactive) in the test on HT-29; 64.7 µM (inactive) with SN12C; 21.9 µM (inactive) in the test on HOP-92; 30.7 µM (inactive) in the test on SNB-19. Besides, the GI50 is 24 µM (inactive) in the test with TK-10; 23.1 µM (inactive) in the test on 786-0; > 100 µM (inactive) in the test on A498; > 100 µM (inactive) in the test on SW-620; 34.2 µM (inactive) in the test on OVCAR-8.
Take `CCCCCCCC(=O)OCC1OC(n2cc(F)c(=O)[nH]c2=O)C(NC(=O)OCc2ccccc2)C(OC(=O)CCCCCCC)C1O` (centres undefined): the GI50 was 20.6 µM (inactive) in the test with OVCAR-3; 57 µM (inactive) with SF-295; 35.3 µM (inactive) in the test with KM12; 0.106 µM (active) with UO-31; > 100 µM (inactive) in the test with IGROV-1; 20.2 µM (inactive) in the test on RXF 393. Besides, the GI50 in the test with SK-MEL-2 is 21.6 µM (inactive); in the test with M14 it was 25.4 µM (inactive); in the test on HT-29, 29.8 µM (inactive); in the test with SN12C it was 14.1 µM (inactive); with HOP-92 it was 23.2 µM (inactive); with COLO 205, 26 µM (inactive). Moreover, the GI50 in the test on SNB-19 was 0.11 µM (active); in the test on TK-10 it was 38 µM (inactive); in the test with 786-0, 23.5 µM (inactive); in the test with A498 it was > 100 µM (inactive); in the test with SW-620, 35 µM (inactive); with OVCAR-8, 34 µM (inactive).
For `O=C1NC2(CCCCC2)C2CCCCC(O)C12` (centres undefined), the GI50 with OVCAR-3, in the test on SF-295, with KM12, with UO-31, in the test on IGROV-1 and with RXF 393 was > 100 µM (inactive) in each case. In addition, the GI50 in the test on NCI-H226, in the test with SK-MEL-2, in the test on HT-29, in the test on SN12C, in the test on COLO 205 and in the test with SNB-19 was > 100 µM (inactive) each time. For the same molecule, the GI50 in the test with TK-10, with 786-0, with A498, with OVCAR-5, in the test with SW-620 and in the test with OVCAR-8 was > 100 µM (inactive) in each case.
In the case of `CCN(CCO)C(=O)C1(c2ccccc2)CCCCC1`, the GI50 in the test on OVCAR-3, with SF-295, with KM12, with UO-31, in the test with IGROV-1 and with RXF 393 was > 10 µM (inactive) in each case. Besides, the GI50 in the test with NCI-H226, in the test on SK-MEL-2, in the test on M14, with HT-29, with SN12C and with COLO 205 was > 10 µM (inactive) in each case. Besides, the GI50 in the test on SNB-19, with TK-10, in the test on A498, in the test on OVCAR-5, in the test on SW-620 and with OVCAR-8 was > 10 µM (inactive) each time.
For the molecule `S=C(S)N1CCN(c2ccccc2)CC1`, the GI50 in the test with OVCAR-3 was > 100 µM (inactive); in the test with SF-295, > 100 µM (inactive); with KM12, > 100 µM (inactive); in the test with IGROV-1, > 100 µM (inactive); in the test on RXF 393, > 100 µM (inactive); in the test with SK-MEL-2, 37.9 µM (inactive). The GI50 with M14 was > 100 µM (inactive); with HT-29 it was > 100 µM (inactive); with SN12C it was > 100 µM (inactive); in the test with HOP-92, > 100 µM (inactive); with COLO 205, 57.5 µM (inactive); in the test with SNB-19 it was > 100 µM (inactive). Further, the GI50 was > 100 µM (inactive) in the test with TK-10; 45.1 µM (inactive) in the test on 786-0; > 100 µM (inactive) in the test on A498; > 100 µM (inactive) in the test with OVCAR-5; 71.9 µM (inactive) with SW-620; > 100 µM (inactive) in the test with OVCAR-8.

(Values after ChEMBL document CHEMBL1201862, “PubChem BioAssay data set” (2004).)
